Residues, ends and D or L forms follow the SMILES beside them.
Tests used:
[1] = system: cerebral cortex explants; test: Development of cerebral cortex explants (area index); assay type: cell-based, chicken embryos
Description: The experiments were carried out on 73 cerebral cortex fragments of 10–11 day old chicken embryos. Culture medium for the explants comprised 35% Eagle's solution, 25% foetal calf serum, 35% Henks' solution, 5% chicken embryonic extract. The medium was also added glucose (0.6%), insulin (0.5 IU/ml), penicillin (100 IU/ml), glutamine (2 mM). The cerebral cortex fragments were placed in the said medium and cultivated in Petri dishes in a thermostat at 36.7° C. for 2 days. L-Ala-L-Glu-L-Asp-L-Pro (SEQ ID NO:1) tetrapeptide and Cerebrolysin in concentrations 0.5, 1, 2, 20, 50, 100, 200, 400, 800, 1000 ng/ml were added into the experimental medium. Area index (AI) served as a criterion of biological activity and reflected the ratio of the entire explant area including the growth zone to the initial area of the cortex fragment. Student's t-criterion was applied to assess the significance of differences between the compared mean AI values. AI values were expressed percent. The control AI value was taken for 100%.
The growth zone of the control cortex explants included short axons, neuroglia cells migrating to the periphery and fibroblast-like cells.
Following series of experiments were performed to study the direct effect of the drugs on the cerebral cortex fragments.
Cerebrolysin in various concentrations was added to the culture medium of the cerebral cortex explants of the chicken embryos. […]

[2] = system: cerebral cortex of rats; test: Intensity of lipid peroxide oxidation reactions and protein peroxidation in the cerebral cortex; assay type: in vivo; conditions: 1 μg intraperitoneally daily for 5 days
Description: The intensity of lipid peroxide oxidation (LPO) was assessed by the content of initial LPO products—diene conjugates and end products—Schiff bases. The degree of protein peroxidation was estimated by the content of carbonyl-derived amino acids in proteins after their interaction with 2,4-dinitrophenylhydrazine.
The study was conducted on 20 white unbred rats. 1 μg of the tetrapeptide was administered to the animals intraperitoneally daily for 5 days.
Moreover, the tetrapeptide application inhibited protein peroxidation as well as LPO (Table 1).

[3] = system: mice subject to ECS-induced amnestic impact; test: CRPA in mice subject to ECS-induced amnestic impact; assay type: in vivo; conditions: testing in 24 hours after the training
Description: Nootropic activity of L-Ala-L-Glu-L-Asp-L-Pro tetrapeptide was studied with the application of the conditioned reflex of passive avoidance (CRPA) in the intact animals and under the conditions of amnestic impacts (electroconvulsive treatment and ethanol intoxication).
The experiments were carried out on male mice weighing 20 to 24 g. For each animal the period of stay in dark and lighted chamber departments was registered during 2 min. before the training. […] The animals were trained by means of applying an electric pain stimulus in the preferred dark department, which lasted until the animal left this department. L-Ala-L-Glu-L-Asp-L-Pro tetrapeptide was introduced intraperitoneally 60 min. before the training. Testing was performed in 2 and 24 hours after the training. The period the animal stayed in the dark and lighted chamber departments and the number of animals not entering the dark department (“educated” animals) were recorded.
Electroconvulsive shock (ECS) was induced in the mice no later than in 10 sec. after the training via corneal electrodes by an electric impulse of 25 mA, which lasted for 0.5 sec. L-Ala-L-Glu-L-Asp-L-Pro tetrapeptide was introduced intraperitoneally 60 min. before the training. Testing was performed in 24 hours after the training.

[4] = system: patients with remote complications of craniocerebral injury; test: Clinical trial in patients with remote complications of craniocerebral injury (proof test, EEG α-index, subjective indices); assay type: in vivo, human
Description: The trial was conducted on 35 patients with remote complications of craniocerebral injury. They were divided into 3 groups: a control one (10 patients—standard treatment), a group under study (15 patients—standard treatment+1 μg of L-Ala-L-Glu-L-Asp-L-Pro tetrapeptide intramuscularly, daily for 10 days) and a comparison group (10 patients—standard treatment+Cerebrolysin). Remoteness of the suffered craniocerebral injury in the patients constituted 1 to 10 years. Decompensation of the posttraumatic process occurred in all the patients and was manifested in liquorodynamic disorder, neurocirculatory dystonia, cerebrofocal and psychopathologic syndromes.
Effect of the treatment with L-Ala-L-Glu-L-Asp-L-Pro tetrapeptide on the patients' attention was assessed by the proof test before and after the treatment. Significant increase in the number of reviewed symbols and decreased number of mistakes was noted, which indicated enhanced attention and raised stability of attention promoted by the tetrapeptide action (Table 5).
To assess the influence of L-Ala-L-Glu-L-Asp-L-Pro tetrapeptide on the cerebral bioelectric activity, a visual EEG (electroencephalography) test was carried out with its distribution on types and calculation of α-index before and after the treatment. EEG test was selectively performed in the patients from different groups showing most notable signs of disorder.
Before the treatment patients pathologic (III, IV and V) types of EEG prevailed in all the groups. The III-rd EEG type was characterised by the presence of so-called “non-dominant” curve, alongside with a low amplitude rate (no higher than 30–35 μV), irregular or even absent α-activity. The IV-th EEG type was marked by an extremely emphasised rhythm regularity and blurred zonal differences. The V-th EEG type was represented with an irregular slow activity (amplitude exceeding 35 μV), sharp waves and paroxysmal discharges.

[5] = system: patients with vascular dementia; test: Preliminary clinical trial in patients with vascular dementia; assay type: in vivo, human; conditions: 3 μg intramuscularly once daily for 30 days
Description: Twelve patients aged 69 to 76 years (7 males and 5 females) suffering from hypertensive disease and atherosclerosis of cerebral vessels for a long time were enrolled in the study. Three of them had apoplexy in their medical histories. Initial data obtained in the similar patients before the treatment was used as control. L-Ala-L-Glu-L-Asp-L-Pro tetrapeptide was intramuscularly injected in a single dose of 3 μg once daily for 30 days.
Results were assessed after the treatment in comparison with the data obtained before the treatment. Basing on the examination results, changes in the patients' state were defined according to the following gradation: improvement (substantial, average or minor), deterioration, no changes.
At the pretreatment examination signs of intellectual-mnemic defect were found in all the patients: memory impairment, intellectual deterioration, aphasia, apraxia and agraphia disorders. In 9 patients signs of disorientation in time and place were found. The patients' emotional state was labile, manifested with periodical alternation of apathy and euphoria, complacency and anger aptness.

[6] = after treatment, added to conventional treatment

## C[C@H](N)C(=O)N[C@@H](CCC(=O)O)C(=O)N[C@@H](CC(=O)O)C(=O)N1CCC[C@H]1C(=O)O [L-Ala-L-Glu-L-Asp-L-Pro tetrapeptide, L-Alanyl-L-Glutamyl-L-Aspartyl-L-Proline] (H-AEDP-OH)
[1]; 20 ng/ml
  increase in the explant area index (AI) in comparison with control: 40±7%
[1]; effective concentration
  concentration stimulating cultivated cortical fragments: 20 ng/mL
[2]
  Degree of protein peroxidation: 4.81 ± 0.09 μmole/mg of protein
  Diene conjugates: 29.67 ± 1.93 nmole/g of the tissue
  Schiff bases: 245.2 ± 23.9 IU/g of the tissue
[3]
  Total period of stay in the dark chamber in 24 hours: 38.1 ± 4.4
[3]; i.p. 60 min. before the training
  Trained animals (%): 25%
[4]; [6]
  Number of mistakes (proof test): 6.3 ± 1.1
  Reviewed symbols (proof test): 2519.6 ± 105.3
  α-index (EEG): 47.9 ± 3.1
[4]; before vs after treatment, 1 μg intramuscularly daily for 10 days
  cases with improvement of subjective indices (memory, mental agility, headaches, emotional evenness, will activity, recovery after a night repose): 71%
[5]
  patients showing reverse development of the pathologic symptoms: 74.8%
